Data taken from patent publication US7740850B2, “PDGFRβ-specific antibodies” (ImClone, LLC, priority 2007, dated 2010).

Experiments:
Format in all cases: binding
Settings in all cases: ✓ / X, key not given
h5α = h5α (Homo sapiens, UniProt P16234); assay: Epitope mapping
Protocol: (§1) Various chimeric constructs of PDGFRβ and PDGFRα were first made by domain swapping, starting from N-terminus to C-terminus with PDGFRβ domain(s) replacing PDGFRα domain(s). The PDGFRβ/α chimera were tested for the ability of 2C5 binding. Shorter versions of PDGFRβ, including D1D2, D2D3 and D1D2D3, were then made to confirm the 2C5 binding domains on PDGFRβ.

4β1α = assay: Epitope mapping, PDGFRβ/α chimera
Protocol: (§2) 2C5 binds to domain 1 (D1) and domain 2 (D2) of PDGFRβ. Various chimeric constructs of PDGFRβ and PDGFRα were first made by domain swapping, starting from N-terminus to C-terminus with PDGFRβ domain(s) replacing PDGFRα domain(s). The PDGFRβ/α chimera were tested for the ability of 2C5 binding. Shorter versions of PDGFRβ, including D1D2, D2D3 and D1D2D3, were then made to confirm the 2C5 binding domains on PDGFRβ.

3β2α = assay: Epitope mapping, PDGFRβ/α chimera
Protocol: as §2

2β3α = assay: Epitope mapping, PDGFRβ/α chimera
Protocol: as §1

m5β = target: T1, m5β (Mus musculus, UniProt P05622); assay: Epitope mapping
T1 sequence (P05622 32-531 limits assumed): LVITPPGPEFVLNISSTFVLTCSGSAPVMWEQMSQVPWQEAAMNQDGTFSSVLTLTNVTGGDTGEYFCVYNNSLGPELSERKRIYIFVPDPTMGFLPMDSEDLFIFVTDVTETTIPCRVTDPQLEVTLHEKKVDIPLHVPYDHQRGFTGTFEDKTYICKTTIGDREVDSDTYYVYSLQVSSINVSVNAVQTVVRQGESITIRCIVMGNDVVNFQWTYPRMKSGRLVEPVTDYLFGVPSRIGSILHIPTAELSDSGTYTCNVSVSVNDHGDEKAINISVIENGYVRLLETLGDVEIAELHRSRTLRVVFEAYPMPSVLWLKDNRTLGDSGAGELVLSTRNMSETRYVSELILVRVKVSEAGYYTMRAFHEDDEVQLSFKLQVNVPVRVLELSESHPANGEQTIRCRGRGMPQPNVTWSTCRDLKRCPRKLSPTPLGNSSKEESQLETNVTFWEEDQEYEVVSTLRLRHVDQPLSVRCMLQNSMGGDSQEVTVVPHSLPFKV
Protocol: as §2

β1-3 = assay: Epitope mapping, shorter version of PDGFRβ (D1D2D3)
Protocol: as §2

Sequence of h5α (P16234 24-528 limits assumed): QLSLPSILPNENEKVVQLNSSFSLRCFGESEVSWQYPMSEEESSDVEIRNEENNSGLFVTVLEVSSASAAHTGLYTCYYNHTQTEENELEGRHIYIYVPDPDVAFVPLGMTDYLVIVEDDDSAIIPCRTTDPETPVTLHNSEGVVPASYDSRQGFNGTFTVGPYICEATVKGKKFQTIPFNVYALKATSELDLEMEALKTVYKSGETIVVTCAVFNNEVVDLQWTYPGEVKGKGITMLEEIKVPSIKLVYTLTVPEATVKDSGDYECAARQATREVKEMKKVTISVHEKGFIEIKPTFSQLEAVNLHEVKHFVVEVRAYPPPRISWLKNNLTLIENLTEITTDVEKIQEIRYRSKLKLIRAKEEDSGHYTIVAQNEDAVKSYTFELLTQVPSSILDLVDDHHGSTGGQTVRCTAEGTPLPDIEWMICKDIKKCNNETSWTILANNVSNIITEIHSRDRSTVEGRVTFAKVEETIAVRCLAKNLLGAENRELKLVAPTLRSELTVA

PDGF-BB: platelet-derived growth factor dimer, ligand of PDGFRβ and PDGFRα [reference compound]
✓: binding to h5α (h5α) | binding to 4β1α (4β1α) | binding to 3β2α (3β2α) | binding to 2β3α (2β3α) | binding to m5β (m5β) | binding to β1-3 (β1-3)
